Measurements taken from US11918589B2, “Medicament for treatment of multiple sclerosis” (NIPPON CHEMIPHAR CO., LTD., priority 2016, dated 2024).

What was measured:
[1] = tested on: EAE model rats; assay: Preventive continuous administration into the subarachnoid cavity of EAE model rats, pain threshold; format: in vivo, rat; conditions: preventive continuous administration into the subarachnoid cavity 10 nmol/5 μL/hr for about 14 days, FIG. 5
Protocol: A polystyrene catheter having an external diameter of 0.30 mm was detained in the subarachnoid cavity in each of 10 weeks old LEW/CrlCrlj female rats. After about one week from the detainment of the catheter for administration in the subarachnoid cavity, EAE model rats were prepared by the same method as that of Example 2.

[2] = tested on: EAE model animals; conditions: reported in the literature; cited from earlier work
[3] = tested on: EAE model rats; assay: Preventive repetitive oral administration to EAE model rats, pain threshold (von Frey, up-down method), symptoms (EAE score), weight; format: in vivo, rat; conditions: orally twice a day 10 mg/kg over 22 days from Day 0, von Frey 50% pain threshold, FIG. 3
Protocol: (§1) EAE model rats were prepared by the same method as that of Example 2. […] For symptom observation, behaviors of the animals allowed to freely act were scored in accordance with the criteria shown in Table 111. The pain threshold was measured after the animals were put into a cage for measurement of which floor is made of a wire gauze, and acclimatized in the environment for 20 minutes or longer. The measurement of the pain threshold was performed according to the method of Chaplan et al. using 7 of von Frey filaments giving different stimulation intensities, and the 50% pain threshold was calculated by the up-down method of Dixon.

[4] = tested on: EAE model rats; assay: Therapeutic repetitive oral administration to EAE model rats, pain threshold; format: in vivo, rat; conditions: orally twice a day 10 mg/kg over 21 days from Day 10 (average EAE score 2 or larger), FIG. 4
Protocol: as §1
EAE model rats were prepared by the same method as that of Example 2.

## O=C1CC(=O)N(c2cccc(-c3nnn[nH]3)c2)c2ccc3ccccc3c2N1.[Na] [compound B, 5-[3-(1H-tetrazol-5-yl)phenyl]-1H-naphtho[1,2-b][1,4]diazepine-2,4(3H,5H)-dione sodium salt]
[1]
  influence on the pain threshold (mechanical allodynia induced by EAE): suppressed mechanical allodynia induced by EAE

## CN1CC[C@]23c4c5ccc(O)c4O[C@H]2[C@@H](O)C=C[C@H]3[C@H]1C5 [morphine]
[2]
  analgesic action in allodynia observed in the EAE model: markedly decreases

## O=C1CC(=O)N(c2ccc(NC(=O)c3ccccc3I)cc2)c2ccc3ccccc3c2N1 [compound A, 5-[4-(2-iodobenzoyl)aminophenyl]-1H-naphtho[1,2-b][1,4]diazepine-2,4(3H,5H)-dione]
[3]
  influence on the pain threshold (mechanical allodynia induced by EAE): continuously suppressed mechanical allodynia induced by EAE
[4]
  influence on the pain threshold (mechanical allodynia induced by EAE): suppressed mechanical allodynia induced by EAE
